The results in this text go back to patent publication US7446102B2, “Antibacterial amide macrocycles IV” (priority 2004, dated 2008).

The assay deals with S. aureus 133. Description: Systemic infection with S. aureus 133 (mouse sepsis model). Type of assay: in vivo. Particulars: female CFW1 mice, i.p. infection, i.v. therapy 30 minutes after the infection, survival over 6 days.

With `NCCC[C@H](NC(=O)[C@@H]1Cc2cc(ccc2O)-c2ccc(O)c(c2)C[C@H](N)C(=O)N[C@@H](CCCN)C(=O)N1)C(=O)NCCN` [Example 2, (8S,11S,14S)-14-Amino-N-((1S)-4-amino-1-{[(2-aminoethyl)amino]carbonyl}butyl)-11-(3-aminopropyl)-5,17-dihydroxy-10,13-dioxo-9,12-diazatricyclo[14.3.1.1^2,6]henicosa-1(20),2(21),3,5,16,18-hexaene-8-carboxamide tetra(hydrotrifluoroacetate)], the “therapeutic effect ED100” value stood at 1.25 mg/kg.
